Assay results: patent US12213970B2, “Pyridinyl sulfonamide derivatives, pharmaceutical compositions and uses thereof” (Boehringer Ingelheim International GmbH, priority 2018, dated 2025)
Structures can show the parent of a compound that is named as a salt. Where two headings read alike, the source gives them in different places.

Assays:
[1] = molecular target: T1, human AOC3 enzyme (recombinant CHO cells) (Homo sapiens, UniProt Q16853); assay: AOC3 biochemical assay (MAO-Glo), human enzyme
T1 construct: expressed in transfected cells; host or cells: CHO cells
T1 sequence (Q16853 1-763): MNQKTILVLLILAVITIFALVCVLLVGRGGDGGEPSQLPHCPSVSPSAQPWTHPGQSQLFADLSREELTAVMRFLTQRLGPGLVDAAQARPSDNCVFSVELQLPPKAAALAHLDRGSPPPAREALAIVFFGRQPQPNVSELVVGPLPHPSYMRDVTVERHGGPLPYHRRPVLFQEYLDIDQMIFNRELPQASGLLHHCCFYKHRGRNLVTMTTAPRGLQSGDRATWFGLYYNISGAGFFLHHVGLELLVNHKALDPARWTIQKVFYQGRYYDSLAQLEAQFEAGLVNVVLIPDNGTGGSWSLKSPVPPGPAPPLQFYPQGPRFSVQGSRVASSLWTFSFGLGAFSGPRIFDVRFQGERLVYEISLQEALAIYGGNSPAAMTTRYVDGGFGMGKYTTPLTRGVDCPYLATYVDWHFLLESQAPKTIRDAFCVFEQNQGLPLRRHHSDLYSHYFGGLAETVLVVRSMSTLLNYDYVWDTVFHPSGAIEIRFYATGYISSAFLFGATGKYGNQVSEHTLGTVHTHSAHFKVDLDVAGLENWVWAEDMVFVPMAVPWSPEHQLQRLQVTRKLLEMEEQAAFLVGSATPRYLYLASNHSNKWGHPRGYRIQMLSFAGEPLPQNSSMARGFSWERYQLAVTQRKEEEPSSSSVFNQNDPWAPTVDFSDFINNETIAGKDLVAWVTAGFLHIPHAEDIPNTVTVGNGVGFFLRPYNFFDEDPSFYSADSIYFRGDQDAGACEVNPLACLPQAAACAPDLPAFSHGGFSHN
Text: The MAO-Glo™ Assay (commercially available from PROMEGA, #V1402) provides a sensitive method for the measurement of monoamine oxidase (MAO) activity (Valley, M. P. et al., 2006, Anal. Biochem. 359: 238-246) from a variety of tissues, biofluids or recombinant expressed or purified enzymes. As substrate a derivate of the beetle luciferin ((4S)-4,5-dihydro-2-(6-hydroxybenzothiazolyl)-4-thiazole-carboxylic acid) is used, which is oxidized at a primary amine moiety. After a spontaneous elimination and a catalyzed esterase reaction, the turnover of luciferin by the luciferase is recorded as a signal of AOC3 activity.
An aliquot of 3 μL of the compound dilution is added to a 384 well plate (Optiplate, PS, flat bottom, white, PERKIN ELMER, #6007290) with a final DMSO concentration of 6.6%. Recombinant CHO cells, overexpressing the human (1500 cells/well), mouse (1000 cells/well) or rat (500 cells/well) AOC3 enzyme are diluted in reaction buffer and added in a volume of 15 μL to the wells. After incubation for 20 minutes at 37° C., 2 μL of MAO substrate (dissolved in DMSO at 16 mM, adjusted to assay concentration in reaction buffer to a final assay concentration of 20 μM) is added and further incubated for 60 minutes at 37° C. The turnover of the substrate is determined by the addition of 20 μL of the detection-mix which was generated by the addition of reconstitution buffer with esterase (PROMEGA, #V1402) to the luciferin detection reagent (PROMEGA, #V1402). After an incubation period of 20 minutes, the luminescent signal is measured with Envision 2104 Multilabel Reader (PERKIN ELMER).

[2] = molecular target: T2, AOC2 (Homo sapiens, UniProt O75106); assay: AOC2 biochemical assay (Amplex Red)
T2 construct: host or cells: HEK293 cells (transient transfection), cell homogenate
T2 sequence (O75106 1-756): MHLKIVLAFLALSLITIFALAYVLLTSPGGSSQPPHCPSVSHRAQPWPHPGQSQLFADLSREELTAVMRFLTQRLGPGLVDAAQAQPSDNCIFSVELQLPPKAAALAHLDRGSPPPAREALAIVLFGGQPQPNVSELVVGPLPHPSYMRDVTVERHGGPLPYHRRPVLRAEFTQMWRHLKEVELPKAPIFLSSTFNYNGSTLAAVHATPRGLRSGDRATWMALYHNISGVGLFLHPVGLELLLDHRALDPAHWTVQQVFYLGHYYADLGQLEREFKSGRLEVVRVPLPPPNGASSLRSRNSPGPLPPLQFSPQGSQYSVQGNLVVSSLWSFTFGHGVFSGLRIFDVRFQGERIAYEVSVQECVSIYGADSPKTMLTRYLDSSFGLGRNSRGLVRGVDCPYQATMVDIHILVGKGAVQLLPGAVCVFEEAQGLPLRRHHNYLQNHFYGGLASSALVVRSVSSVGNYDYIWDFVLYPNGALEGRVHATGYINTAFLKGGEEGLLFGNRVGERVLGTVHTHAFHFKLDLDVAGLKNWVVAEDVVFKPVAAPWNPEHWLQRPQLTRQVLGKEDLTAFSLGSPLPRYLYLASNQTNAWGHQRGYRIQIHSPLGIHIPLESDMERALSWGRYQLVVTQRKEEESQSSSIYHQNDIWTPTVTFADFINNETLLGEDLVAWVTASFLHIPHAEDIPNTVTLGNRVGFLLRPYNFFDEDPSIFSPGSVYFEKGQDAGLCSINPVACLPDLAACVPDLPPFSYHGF
Procedure: The Amplex® Red Assay (commercially available from Thermo Fisher Scientific) provides a sensitive method for the detection of H2O2 generated during enzymatic reactions like the amine oxidation catalyzed by AOC2. […] An aliquot of 5 μL of the compound dilution is added to a 96 well plate (flat bottom F, black, GREINER bio-one, #655900) in a DMSO concentration of 2%. […] Cells are cultured for 3 days in EMEM culture medium containing 10% FCS (#04-00-1A, Biological Industries). After washing twice with ice cold PBS, cells are lysed by mechanic homogenation and cleared supernatants are shock frozen in liquid nitrogen and stored at -80° C. For the determination of AOC2 enzymatic activity cell lysates are thawed on ice and 1:1 diluted with reaction buffer. An Aliquot of 45 μL is added to the compound dilution and incubated for 30 min at 37° C. The enzymatic reaction is started with the addition of 50 μL of Amplex® Red reaction mix (final assay concentration: 100 mM sodiumphosphate, 120 μM Amplex® Red reagent (#A22177 Molecular Probes), 1.5 U/mL Horseradish Peroxidase (#P8375 Sigma-Aldrich), 2 mM phenylethylamine (#[…] Sigma-Aldrich), 0.05% Pluronic F-127 (#P3000MP Sigma-Aldrich), pH 7.4, 37° C.). The turnover per time of the substrate is determined directly with a fluorescence reader (Ex 540 nm/Em 590 nm) like Envision 2104 Multilabel Reader (PERKIN ELMER) for 60 min. (cf. Anal Biochem (1997) 253:169-174; Anal Biochem (1997) 253:162-168)

[3] = comparison table, read-out: IC50 AOC3

Row | Structure (SMILES) | IC50 ([1]; read-out: AOC3 IC50) | IC50 ([2]; read-out: AOC2 IC50) | also measured
1 | NC/C(=C/F)COc1ccc(S(=O)(=O)N2CCC(C(=O)N3CCC3)CC2)cn1 [Example 10] | 22 nM | 214 nM | 
2 | NC/C(=C/F)COc1ccc(S(=O)(=O)N2C[C@H]3C[C@@]3(C(=O)N3CCOCC3)C2)cn1 [Example 22] | 35 nM | 93 nM | 
3 | CN(C)C(=O)[C@H]1CCN(S(=O)(=O)c2ccc(OC/C(=C\F)CN)nc2)C1 [Example 4] | 23 nM | 394 nM | 
4 | NC/C(=C/F)COc1ccc(S(=O)(=O)N2CC(C(N)=O)C2)cn1 [Example 20] | 6 nM | 119 nM | 
5 | NC/C(=C/F)COc1ccc(S(=O)(=O)N2CCC(C(N)=O)CC2)cn1 [Example 7] | 4 nM | 272 nM | 
6 | CC1(C(=O)O)CCN(S(=O)(=O)c2ccc(OC/C(=C\F)CN)nc2)CC1 [Example 47] | 548 nM | 5 nM | 
7 | NC/C(=C/F)COc1cnc(N2CC[C@H](O)C2)nc1 [Z isomer of example 6 of WO 2018/027892, reference compound] |  |  | IC50 [1, 3]: 7 nM; IC50 ([2]; read-out: IC50 AOC2): 2730 nM
8 | COC(=O)C1(C)CCN(S(=O)(=O)c2ccc(OC/C(=C\F)CN)nc2)CC1 [Example 36] | 4 nM | 3 nM | 
9 | COC1CN(S(=O)(=O)c2ccc(OC/C(=C\F)CN)cc2)C1 [Reference compound A, reference compound] |  |  | IC50 [1, 3]: 3 nM; ratio IC50 AOC2/IC50 AOC3 (fold less active against AOC2 as compared to AOC3) ([2]; AOC2 versus AOC3): 52 fold; IC50 ([2]; comparison table, read-out: IC50 AOC2): 156 nM
10 | CCNC(=O)C1(C)CCN(S(=O)(=O)c2ccc(OC/C(=C\F)CN)nc2)CC1 [Example 23] | 28 nM | 79 nM | 
11 | COC(=O)[C@H]1[C@@H]2CN(S(=O)(=O)c3ccc(OC/C(=C\F)CN)nc3)C[C@@H]21 [Example 35, trans-3-[6-((Z)-2-Aminomethyl-3-fluoro-allyloxy)-pyridine-3-sulfonyl]-3-aza-bicyclo[3.1.0]hexane-6-carboxylic acid methyl ester trifluoroacetate] | 3 nM | 277 nM | 
12 | CC(=O)NC1CCN(S(=O)(=O)c2ccc(OC/C(=C\F)CN)nc2)C1 (stereo not drawn) [Example 12] | 15 nM | 209 nM | 
13 | NC/C(=C/F)COc1ccc(S(=O)(=O)N2CC[C@H](C(=O)N3CCOCC3)C2)cn1 [Example 21] | 28 nM | 101 nM | 
14 | CCNC(=O)CC1CCN(S(=O)(=O)c2ccc(OC/C(=C\F)CN)nc2)CC1 [Example 30] | 15 nM | 44 nM | 
15 | NC/C(=C/F)COc1ccc(S(=O)(=O)N2CCC(CC(N)=O)CC2)cn1 [Example 50] | 8 nM | 16 nM | 
16 | CC1(O)CN(S(=O)(=O)c2ccc(OC/C(=C\F)CN)nc2)C1 [Example 16] | 9 nM | 189 nM | 
17 | COC1CCN(S(=O)(=O)c2ccc(OC/C(=C\F)CN)nc2)CC1 [Example 40] | 4 nM | 40 nM | 
18 | COC(=O)C1CCN(S(=O)(=O)c2ccc(OC/C(=C\F)CN)nc2)CC1 [Example 34] | 4 nM | 78 nM | 
19 | NC/C(=C/F)COc1ccc(S(=O)(=O)N2CC[C@H](C(N)=O)C2)cn1 [Example 39] | 6 nM | 56 nM | 
20 | CN1CCN(C2CCN(S(=O)(=O)c3ccc(OC/C(=C\F)CN)nc3)CC2)C1=O [Example 1, 1-{1-[6-((Z)-2-Aminomethyl-3-fluoro-allyloxy)-pyridine-3-sulfonyl]-piperidine-4-yl}-3-methyl-imidazolidin-2-one trifluoroacetate] | 7 nM | 120 nM | 
21 | NC/C(=C/F)COc1ccc(S(=O)(=O)N2CC[C@H](O)C2)cn1 [Example 43, (S)-1-[6-(Z)-2-Aminomethyl-3-fluoro-allyloxy]-pyridine-3-sulfonyl]-pyrrolidin-3-ol trifluoroacetate] | 10 nM |  | IC50 ([2]; read-out: IC50 AOC2): 210 nM
22 | CN(C)C(=O)C1CCN(S(=O)(=O)c2ccc(OC/C(=C\F)CN)nc2)CC1 [Example 17] | 16 nM | 189 nM | 
23 | NC/C(=C/F)COc1ccc(S(=O)(=O)N2CC(C3CCN(C(=O)C4CC4)CC3)C2)cn1 [Example 26] | 9 nM | 63 nM | 
24 | CC1(O)CCN(S(=O)(=O)c2ccc(OC/C(=C\F)CN)nc2)CC1 [Example 41] | 10 nM | 24 nM | 
25 | CC1(C(=O)NC2CCOCC2)CCN(S(=O)(=O)c2ccc(OC/C(=C\F)CN)nc2)CC1 [Example 48, 1-[6-((Z)-2-Aminomethyl-3-fluoro-allyloxy)-pyridine-3-sulfonyl]-4-methyl-piperidine-4-carboxylic acid (tetrahydropyran-4-yl)-amide trifluoroacetate] | 33 nM | 73 nM | 
